Reference: ChEMBL document CHEMBL5360670, “Novel Dihydroorotate Dehydrogenase Inhibitors for Treating Acute Myelogenous Leukemia” (ACS Med Chem Lett, 2023)

Each compound was assayed against Dihydroorotate dehydrogenase (quinone), mitochondrial (Homo sapiens, UniProt Q02127) (assay: Inhibition of human DHODH using dihydroorotate and CoQ6 as substrate by DCIP dye based spectrophotometry analysis). Settings: not given.
Chain of Dihydroorotate dehydrogenase (quinone), mitochondrial (Q02127 whole entry): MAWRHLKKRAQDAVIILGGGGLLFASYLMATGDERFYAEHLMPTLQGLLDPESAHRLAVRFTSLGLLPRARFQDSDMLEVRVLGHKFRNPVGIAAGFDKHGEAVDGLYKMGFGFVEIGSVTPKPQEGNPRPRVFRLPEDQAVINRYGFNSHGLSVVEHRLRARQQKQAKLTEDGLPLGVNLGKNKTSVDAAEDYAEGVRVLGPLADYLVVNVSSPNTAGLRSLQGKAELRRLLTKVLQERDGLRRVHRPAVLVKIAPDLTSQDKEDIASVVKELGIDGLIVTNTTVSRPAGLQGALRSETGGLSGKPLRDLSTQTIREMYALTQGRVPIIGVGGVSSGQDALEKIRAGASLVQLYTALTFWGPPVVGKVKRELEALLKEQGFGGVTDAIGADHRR

IC50 [pM] | Structure (SMILES)
540 | [2H]C([2H])([2H])n1cc(-c2cc3c(C(C)C)cn(-c4ccccc4C)c(=O)c3cc2F)nc1C(C)(C)O

What follows are compounds tested on MOLM-13 (assay: Cytotoxicity against human MOLM-13 cells assessed as reduction in cell viability incubated for 72 hrs by Celltiter-glo luminescent assay). Settings: MOLM-13, 72 h.
Format: functional, cell-based

Structure (SMILES) | IC50 [pM]
Cc1ccccc1-n1cc(C(C)C)c2cc(-c3ccc(C)c(N)n3)c(F)cc2c1=O | 20
Cc1ccccc1-n1nc(C(C)C)c2cc(-c3cn(C)c(C(C)(C)O)n3)c(F)cc2c1=O | 90
Cc1ccccc1-n1cc(C(C)C)c2cc(-c3cn(C)c(C(C)(C)O)n3)c(F)cc2c1=O | 80
Cc1ccccc1-n1cc(C(C)C)c2cc(-c3cn(C)c([C@@H](C)O)n3)c(F)cc2c1=O | 100
[2H]C([2H])([2H])n1cc(-c2cc3c(C(C)C)cn(-c4ccccc4C)c(=O)c3cc2F)nc1C(C)(C)O | 40
Cc1ccccc1-n1cc(C(C)C)c2cc(-c3nc(C(C)(C)O)n(C)n3)c(F)cc2c1=O | 80
